Columns and labels:
[1] = target: Metabotropic glutamate receptor 1 (Homo sapiens, UniProt Q13255)
[2] = target: Metabotropic glutamate receptor 5 (Homo sapiens, UniProt P41594)
Sequence of Metabotropic glutamate receptor 5 (P41594 whole entry): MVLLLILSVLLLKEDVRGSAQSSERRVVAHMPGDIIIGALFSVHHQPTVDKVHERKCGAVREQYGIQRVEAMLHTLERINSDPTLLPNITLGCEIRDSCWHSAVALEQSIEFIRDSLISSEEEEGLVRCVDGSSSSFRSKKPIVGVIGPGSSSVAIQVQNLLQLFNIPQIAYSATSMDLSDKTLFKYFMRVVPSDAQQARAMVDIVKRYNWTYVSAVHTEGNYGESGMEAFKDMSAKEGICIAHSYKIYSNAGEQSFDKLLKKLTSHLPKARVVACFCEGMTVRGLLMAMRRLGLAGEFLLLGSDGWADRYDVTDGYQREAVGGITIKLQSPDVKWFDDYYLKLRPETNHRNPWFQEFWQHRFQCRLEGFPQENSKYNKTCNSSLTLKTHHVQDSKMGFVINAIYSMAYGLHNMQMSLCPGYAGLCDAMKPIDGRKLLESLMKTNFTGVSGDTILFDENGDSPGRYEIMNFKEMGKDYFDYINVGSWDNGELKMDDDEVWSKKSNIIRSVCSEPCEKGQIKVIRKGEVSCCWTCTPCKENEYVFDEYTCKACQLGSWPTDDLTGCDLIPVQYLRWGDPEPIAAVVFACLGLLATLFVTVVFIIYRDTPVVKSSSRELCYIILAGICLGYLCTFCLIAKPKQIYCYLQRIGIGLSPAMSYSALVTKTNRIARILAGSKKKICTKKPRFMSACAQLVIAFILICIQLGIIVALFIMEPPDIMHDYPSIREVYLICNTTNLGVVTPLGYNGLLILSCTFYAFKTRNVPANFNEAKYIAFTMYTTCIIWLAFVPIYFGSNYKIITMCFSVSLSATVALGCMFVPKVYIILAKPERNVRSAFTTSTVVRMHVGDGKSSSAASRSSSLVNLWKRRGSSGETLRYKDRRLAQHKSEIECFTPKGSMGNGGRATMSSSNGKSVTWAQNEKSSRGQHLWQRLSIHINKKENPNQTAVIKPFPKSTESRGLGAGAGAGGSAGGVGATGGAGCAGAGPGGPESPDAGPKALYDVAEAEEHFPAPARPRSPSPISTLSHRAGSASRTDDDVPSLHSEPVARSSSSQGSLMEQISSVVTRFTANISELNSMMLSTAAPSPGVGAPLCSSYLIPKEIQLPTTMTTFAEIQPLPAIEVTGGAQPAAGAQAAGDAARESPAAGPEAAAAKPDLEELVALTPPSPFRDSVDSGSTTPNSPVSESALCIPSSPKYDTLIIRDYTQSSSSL

Sequence of Metabotropic glutamate receptor 1 (Q13255 whole entry): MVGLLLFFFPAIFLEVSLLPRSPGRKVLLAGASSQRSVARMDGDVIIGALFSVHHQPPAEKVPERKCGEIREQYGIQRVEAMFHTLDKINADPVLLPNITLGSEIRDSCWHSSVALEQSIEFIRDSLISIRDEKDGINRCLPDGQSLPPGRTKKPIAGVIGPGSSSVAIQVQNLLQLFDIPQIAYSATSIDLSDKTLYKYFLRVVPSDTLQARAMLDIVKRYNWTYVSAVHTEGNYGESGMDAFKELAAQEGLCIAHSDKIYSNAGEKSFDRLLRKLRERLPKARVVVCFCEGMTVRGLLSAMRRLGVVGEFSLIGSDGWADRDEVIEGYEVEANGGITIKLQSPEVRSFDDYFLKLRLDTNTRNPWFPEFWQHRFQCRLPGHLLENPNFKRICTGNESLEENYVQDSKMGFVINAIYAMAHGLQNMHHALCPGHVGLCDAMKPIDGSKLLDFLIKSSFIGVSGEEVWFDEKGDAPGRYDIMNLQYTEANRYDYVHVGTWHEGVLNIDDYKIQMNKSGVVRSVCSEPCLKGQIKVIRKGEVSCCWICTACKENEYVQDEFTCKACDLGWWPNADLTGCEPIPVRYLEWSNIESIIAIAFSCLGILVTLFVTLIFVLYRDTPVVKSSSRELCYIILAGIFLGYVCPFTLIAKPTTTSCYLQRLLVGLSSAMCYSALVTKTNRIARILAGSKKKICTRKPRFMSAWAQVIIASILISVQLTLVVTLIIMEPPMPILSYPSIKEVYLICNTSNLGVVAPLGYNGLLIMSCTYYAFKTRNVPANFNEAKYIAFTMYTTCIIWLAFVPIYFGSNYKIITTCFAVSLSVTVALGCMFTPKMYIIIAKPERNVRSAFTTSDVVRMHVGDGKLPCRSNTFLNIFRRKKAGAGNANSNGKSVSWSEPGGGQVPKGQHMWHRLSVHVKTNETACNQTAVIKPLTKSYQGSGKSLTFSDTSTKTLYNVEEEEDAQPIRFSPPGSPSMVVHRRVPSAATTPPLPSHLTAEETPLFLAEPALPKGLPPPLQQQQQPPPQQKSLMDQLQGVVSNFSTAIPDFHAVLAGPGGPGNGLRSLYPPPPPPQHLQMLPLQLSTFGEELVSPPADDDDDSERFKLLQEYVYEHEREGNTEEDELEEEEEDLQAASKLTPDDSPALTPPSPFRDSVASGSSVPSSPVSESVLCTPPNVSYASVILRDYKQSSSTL

Row | Ki [1] | Ki [2] | SMILES
1 | – | 2.5 µM | NC(C(=O)O)c1ccc(C(=O)O)c(O)c1 (stereo unspecified)
2 | > 10 µM | > 10 µM | C[C@@](N)(C(=O)O)c1ccc(C(=O)O)cc1 (racemic)
3 | > 10 µM | > 10 µM | NC1(C(=O)O)CCc2cc(C(=O)O)ccc21 (racemic) [AIDA]
4 | 0.7 µM | > 10 µM | Cc1cc(C(N)C(=O)O)ccc1C(=O)O (stereo unspecified) [2Me4CPG]
5 | > 10 µM | 8.4 µM | N[C@H](C(=O)O)c1cccc(O)c1 [(S)-3-Hydroxyphenylglycine]
6 | 3.7 µM | > 10 µM | N[C@@H](C(=O)O)c1ccc(C(=O)O)cc1 [(S)-4CPG]
7 | 0.9 µM | 3.9 µM | Nc1nc(O)c2ncn(COC(CO)CO)c2n1 [CAS_82410-32-0]
8 | > 10 µM | > 10 µM | NC(C(=O)O)c1cc(O)ccc1Cl (stereo unspecified) [CHPG]
9 | > 10 µM | > 10 µM | N[C@H](C(=O)O)C1[C@@H](C(=O)O)[C@@H]1C(=O)O (stereo partly specified) [DCG-IV]
10 | 2.3 µM | 1.5 µM | N[C@H](C(=O)O)[C@H]1C[C@H]1C(=O)O [L-CCG-IV]
11 | > 10 µM | > 10 µM | O=c1nc2c3cc(-n4ccnc4)c([N+](=O)[O-])cc3[nH]c(=O)n2[nH]1 [Ro-48-8587]

Row | SMILES | Ki [1] | Ki [2]
12 | N[C@@H](CCP(=O)(O)O)C(=O)O | > 10 µM | > 10 µM
13 | N[C@@]1(C(=O)O)CC[C@H](C(=O)O)C1 [1S, 3R-ACPD] | – | 2.1 µM
14 | N[C@@H](Cn1oc(=O)[nH]c1=O)C(=O)O [2-amino-3-(3,5-dioxo[1,2,4]oxadiazolidin-2-yl)propionic acid] | – | 0.029 µM
15 | Cc1onc(O)c1CC(N)C(=O)O (stereo not drawn) [(RS)-2-amino-3-(3-hydroxy-5-methylisoxazol-4-yl)-propionicacid] | > 10 µM | > 10 µM
16 | NC(C(=O)O)c1cc(=O)[nH]o1 (stereo unspecified) [Amino-(3-hydroxy-isoxazol-5-yl)-acetic acid(Ibotenic acid)] | 1.2 µM | 1.9 µM
17 | N[C@H](CP(=O)(O)O)C(=O)O [CAS_23052-80-4] | > 10 µM | > 10 µM
